US5508174A, “Method and micro roller bottle for in vitro exposure of cells to volatile chemicals” (The United States of America as represented by the …, priority 1993, dated 1996)

system: Primary hepatocytes; assay: in vitro exposure of primary hepatocytes to volatile HCFCs, enzyme leakage (LDH and AST); type: cell-based; settings: 10,000, 100,000 and 500,000 ppm, 24 hours
Source text: Any adherent cell line or adherent primary cell type can be used in this system. Adherent cell lines may attach to glass walls, i.e., the inner surface of a glass body 10. When cells reach confluency, exposure can bc initiated. […] This can be accomplished by attaching primary cells to a sterile strip of inert mesh 38, e.g., nylon mesh, precoated with an attachment factor such as collagen. The mesh is carefully rolled and placed into body 10 through one of the openings 14 or 16. After the mesh is unrolled within body 10, the openings 14 and 1.6 are sealed using the septa or the valve 22 previously described.
The cells to be tested are washed and isolated using known procedures. The washed isolated cells are resuspended at a suitable cell density, e.g., about 10^6 to 10^7 /ml, in a suitable culture medium, e.g., Williams E or Leibovitz's-15. The culture medium may be supplemented with a suitable media supplement, e.g., fetal calf serum, dexamethasone, etc. The suspended cells are distributed over the mesh or over the inner surface of device 10. The cells are allowed to attach for a suitable period. If the mesh is used, it is rolled into a narrow tube, inserted into device 10 and allowed to unroll. Culture medium is added to the device 10 to a desired quantity. Scaling means 18 and 20 are inserted into openings 14 and 16. […]
A syringe needle is inserted through one of the sealing means 18 or 20 to provide egress for excess atmosphere within device 10. […] A sample of the atmosphere within device 10 is taken from each device prepared for testing and analyzed by gas-chromatography (GC) to determine the actual concentration of the volatile compound in the device.
The thus-prepared test device is placed on a roller apparatus in an incubator at a suitable temperature. […] At the termination exposure, a second sample of the atmosphere should be taken and analyzed by GC to ensure that the volatile compound is present at a concentration of at least about 95% of that measured initially. […]

Compound | relative rank ordering of toxicity, based on lactate dehydrogenase (LDH) and S-amino-transferase (AST) enzyme leakages
FC(F)(F)C(Cl)Cl [HCFC-123, 2,2-dichloro-1,1,1-trifluoroethane] | HCFC-123>HCFC-123/142b>HCFC-124>HCFC-142b
FC(Cl)C(F)(F)F (stereo not drawn) [HCFC-124, 1-chloro-1,2,2,2-trifiuoroethane] | HCFC-123>HCFC-123/142b>HCFC-124>HCFC-142b
CC(F)(F)Cl [HCFC-142b, 1-chloro-1,1-difluoroethane] | HCFC-123>HCFC-123/142b>HCFC-124>HCFC-142b
